In patent US20070059704A1, “Detection system” (priority 2003, published 2007):

System: J3130
Test: Bioassay: induction of growth of drug-dependent femX null mutant J3130 by antibiotics applied on paper discs
Type: cell-based, Streptomyces coelicolor
Settings: for induction of growth of J3130 around the paper disc: paper disc on MMT medium spread with J3130 spores, result in words
Description: To see if growth of J3130 could be induced by control antibiotics known to target the cell envelope, spores of J3130 were spread on MMT medium (Kieser et al, 2000) and potential inducers were applied on paper discs to the freshly spread plates. […] None of the other antibiotics tested, including many cell wall-specific non-glycopeptide antibiotics, induced growth of J3130.
In order to perform the assay of the invention, spores of J3130 are spread on MMT medium at concentration of approximately 5×10^6/12 cm^2 plate. Test compound is applied on paper discs to a number of freshly spread plates in parallel using a different concentration of the test compound in each plate.

Row | Molecule | amount that gives a positive reaction in the bioassay (initial assessment of sensitivity) (J3130 bioassay, two-fold dilution series) [ng] | induction of growth of J3130 around the paper disc
1 | CN[C@H](CC(C)C)C(=O)N[C@H]1C(=O)N[C@@H](CC(N)=O)C(=O)N[C@H]2C(=O)N[C@H]3C(=O)N[C@H](C(=O)N[C@H](C(=O)O)c4cc(O)cc(O)c4-c4cc3ccc4O)[C@H](O)c3ccc(c(Cl)c3)Oc3cc2cc(c3O[C@@H]2O[C@H](CO)[C@@H](O)[C@H](O)[C@H]2O[C@H]2C[C@](C)(N)[C@H](O)[C@H](C)O2)Oc2ccc(cc2Cl)[C@H]1O [Vancomycin] | 80 | induced a halo of growth
2 | CN[C@H](CC(C)C)C(=O)N[C@H]1C(=O)N[C@@H](CC(N)=O)C(=O)N[C@H]2C(=O)N[C@H]3C(=O)N[C@H](C(=O)N[C@H](C(=O)O)c4cc(O)cc(O)c4-c4cc3ccc4O)[C@H](O[C@H]3C[C@](C)(N)[C@@H](O)[C@H](C)O3)c3ccc(c(Cl)c3)Oc3cc2cc(c3O[C@@H]2O[C@H](CO)[C@@H](O)[C@H](O)[C@H]2O[C@H]2C[C@](C)(N)[C@@H](O)[C@H](C)O2)Oc2ccc(cc2Cl)[C@H]1O [Chloroeremomycin] | – | induced a halo of growth
3 | N[C@H]1C(=O)N[C@@H]2Cc3ccc(c(Cl)c3)Oc3cc4cc(c3O)Oc3ccc(cc3Cl)[C@@H](O)[C@@H]3NC(=O)[C@H](NC(=O)[C@@H]4NC(=O)[C@@H](NC2=O)c2cc(O)cc(c2)Oc2cc1ccc2OS(=O)(=O)O)c1cc(Cl)c(O)c(c1)-c1c(O)cc(O)cc1[C@@H](C(=O)O)NC3=O [A47934] | – | induced a halo of growth
4 | Ristocetin | – | induced a halo of growth
